Assay results taken from article PMC9965018, “Marine-Derived Natural Product HDYL-GQQ-495 Targets P62 to Inhibit Autophagy” (Marine Drugs, 2023).

Target: T1, P62 (P62/SQSTM1) (Homo sapiens, UniProt Q13501)
T1 construct: MBP-P62 (purified recombinant)
Assay: microscale thermophoresis (MST) with labelled MBP-P62, MBP as negative control; also induces polymerization of purified P62
Assay type: binding

T1 sequence (Q13501 2-440): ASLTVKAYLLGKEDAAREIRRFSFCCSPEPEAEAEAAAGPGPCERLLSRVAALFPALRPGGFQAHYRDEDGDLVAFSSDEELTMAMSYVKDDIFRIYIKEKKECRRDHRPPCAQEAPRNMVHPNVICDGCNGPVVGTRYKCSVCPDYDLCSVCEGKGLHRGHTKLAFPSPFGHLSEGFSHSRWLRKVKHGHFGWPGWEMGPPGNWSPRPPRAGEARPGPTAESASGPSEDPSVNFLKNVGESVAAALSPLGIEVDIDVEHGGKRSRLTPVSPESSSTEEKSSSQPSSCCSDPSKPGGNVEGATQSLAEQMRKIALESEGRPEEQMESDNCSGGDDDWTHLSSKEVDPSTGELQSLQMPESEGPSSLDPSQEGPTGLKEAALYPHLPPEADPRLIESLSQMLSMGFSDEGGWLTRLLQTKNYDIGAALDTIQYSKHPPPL

- Kd: 11.2 ± 4.07 µM
Compound: O=C(c1ccc(OCCN2CCCCC2)cc1)c1c(O)nc2ccc(O)c3c2c1-c1cccc(O)c1C3=O [HDYL-GQQ-495]
